Consider one molecule from patent publication US9492471B2, “Methods of treating a disease or disorder associated with Bruton'S Tyrosine Kinase” (Celgene Avilomics Research, Inc., priority 2013, dated 2016).

Where two headings read alike, the source gives them in different places.

As usually defined, the inhibition is the drop in the measured response relative to a control, in per cent.

Experiment in all cases: HotSpot kinase profiling
Common to all, as to type: biochemical

The target of assay [1] is T1, TAK1 (Homo sapiens, UniProt O43318).
T1 construct: purchased Reaction Biology Corp
T1 sequence (O43318 1-303 limits assumed): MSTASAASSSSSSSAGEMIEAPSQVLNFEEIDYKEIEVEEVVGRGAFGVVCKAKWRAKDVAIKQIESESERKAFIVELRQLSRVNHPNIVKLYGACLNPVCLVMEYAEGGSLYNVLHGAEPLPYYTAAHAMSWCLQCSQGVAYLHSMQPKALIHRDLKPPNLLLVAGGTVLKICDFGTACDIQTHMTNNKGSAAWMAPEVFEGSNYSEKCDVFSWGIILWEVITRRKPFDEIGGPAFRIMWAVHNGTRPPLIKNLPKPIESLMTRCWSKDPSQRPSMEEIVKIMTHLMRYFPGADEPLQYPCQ
The method, boiled down: (§1)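 Activity is measured by radiolabel transfer captured on P81 filters after a 2 h room-temperature reaction of kinase, substrate and cofactors. Values are percent inhibition against DMSO.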

Assay [2] has as its target T2, LKB1 (Homo sapiens, UniProt Q15831).
T2 construct: purchased Reaction Biology Corp
T2 sequence (Q15831 1-433): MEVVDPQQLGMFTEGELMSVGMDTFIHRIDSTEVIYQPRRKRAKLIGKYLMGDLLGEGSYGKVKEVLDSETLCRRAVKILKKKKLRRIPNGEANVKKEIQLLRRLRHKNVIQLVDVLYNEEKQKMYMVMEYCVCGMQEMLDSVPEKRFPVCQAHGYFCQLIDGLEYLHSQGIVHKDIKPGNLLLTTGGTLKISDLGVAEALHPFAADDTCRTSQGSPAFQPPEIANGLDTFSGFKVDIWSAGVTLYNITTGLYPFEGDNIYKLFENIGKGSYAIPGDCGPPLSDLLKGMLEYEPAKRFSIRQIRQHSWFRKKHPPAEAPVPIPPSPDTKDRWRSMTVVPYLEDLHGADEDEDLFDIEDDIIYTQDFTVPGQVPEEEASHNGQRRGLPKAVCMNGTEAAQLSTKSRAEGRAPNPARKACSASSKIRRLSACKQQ
T2 sequence (Q7RTN6 1-431 partner): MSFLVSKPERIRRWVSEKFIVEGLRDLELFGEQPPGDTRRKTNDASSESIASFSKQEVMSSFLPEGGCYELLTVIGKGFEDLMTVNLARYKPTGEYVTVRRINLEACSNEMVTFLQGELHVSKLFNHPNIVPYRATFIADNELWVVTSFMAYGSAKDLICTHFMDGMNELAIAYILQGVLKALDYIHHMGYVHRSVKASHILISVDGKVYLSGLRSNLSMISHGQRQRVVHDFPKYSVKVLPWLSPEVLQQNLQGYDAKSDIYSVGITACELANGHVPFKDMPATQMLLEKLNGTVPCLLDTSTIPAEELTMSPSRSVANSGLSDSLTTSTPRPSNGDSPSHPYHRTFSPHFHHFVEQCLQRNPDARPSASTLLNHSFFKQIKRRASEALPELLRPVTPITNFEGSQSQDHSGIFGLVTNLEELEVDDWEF
T2 sequence (Q9Y376 1-341 partner): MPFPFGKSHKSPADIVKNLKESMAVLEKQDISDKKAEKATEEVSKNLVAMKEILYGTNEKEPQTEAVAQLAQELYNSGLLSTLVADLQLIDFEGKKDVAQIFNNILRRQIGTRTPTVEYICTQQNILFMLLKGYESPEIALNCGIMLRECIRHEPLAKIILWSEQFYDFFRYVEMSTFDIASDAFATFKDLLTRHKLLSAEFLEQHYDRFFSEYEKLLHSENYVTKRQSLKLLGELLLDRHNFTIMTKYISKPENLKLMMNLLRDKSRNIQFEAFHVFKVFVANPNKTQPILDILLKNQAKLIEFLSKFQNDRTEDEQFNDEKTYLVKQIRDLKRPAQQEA
In a few lines:
as §1

Assay [3] has as its target T3, GLK/MAP4K3 (Homo sapiens, UniProt Q8IVH8).
T3 construct: purchased Reaction Biology Corp
T3 sequence (Q8IVH8 1-894): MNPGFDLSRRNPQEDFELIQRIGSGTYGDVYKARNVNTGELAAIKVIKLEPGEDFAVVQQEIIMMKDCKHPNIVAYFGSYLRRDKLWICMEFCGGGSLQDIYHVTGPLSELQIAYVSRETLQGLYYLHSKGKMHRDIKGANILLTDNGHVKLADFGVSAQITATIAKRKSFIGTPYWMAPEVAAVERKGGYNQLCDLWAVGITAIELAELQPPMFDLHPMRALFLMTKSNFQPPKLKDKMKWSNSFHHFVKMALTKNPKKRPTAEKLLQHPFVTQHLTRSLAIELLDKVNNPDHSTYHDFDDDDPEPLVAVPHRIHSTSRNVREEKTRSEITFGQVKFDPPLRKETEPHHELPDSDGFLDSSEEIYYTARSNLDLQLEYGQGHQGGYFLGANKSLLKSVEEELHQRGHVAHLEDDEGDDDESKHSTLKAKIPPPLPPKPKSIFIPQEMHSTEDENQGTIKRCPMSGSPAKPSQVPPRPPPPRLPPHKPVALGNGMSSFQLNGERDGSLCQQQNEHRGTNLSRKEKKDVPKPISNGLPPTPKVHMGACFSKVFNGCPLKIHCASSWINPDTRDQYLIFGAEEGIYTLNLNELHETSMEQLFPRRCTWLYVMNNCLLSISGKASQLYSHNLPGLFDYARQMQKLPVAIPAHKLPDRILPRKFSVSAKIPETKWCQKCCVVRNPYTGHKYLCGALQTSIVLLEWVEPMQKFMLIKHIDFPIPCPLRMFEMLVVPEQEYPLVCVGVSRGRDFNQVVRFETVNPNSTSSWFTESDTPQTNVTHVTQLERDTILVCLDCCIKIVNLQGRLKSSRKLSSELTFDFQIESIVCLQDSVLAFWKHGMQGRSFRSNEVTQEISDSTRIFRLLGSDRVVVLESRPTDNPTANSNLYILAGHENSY
The method, boiled down:
as §1

The mark [4] stands for this setting: read-out: % Enzyme Activity (relative to DMSO controls) Run 1.
The mark [5] stands for this setting: read-out: % Enzyme Activity (relative to DMSO controls) Run 2.

Consider `C=CC(=O)Nc1cccc(Nc2nc(Nc3ccc(OCCOC)c(F)c3)ncc2F)c1` [Compound 2], for which the inhibition at 3 µM in assay [1] is 27.3%; in assay [2], 2.41%; in assay [3], -5.08%. The remaining activity at 3 µM in assay [1] (setting [4]) is 73.4%; in assay [1] (setting [5]), 72%; in assay [2] (setting [4]), 99.2%; in assay [2] (setting [5]), 95.9%; in assay [3] (setting [4]) it was 102%; in assay [3] (setting [5]), 108%.
